Assay results: ChEMBL document CHEMBL3769400, “Synthesis of minoxidil conjugates and their evaluation as HL-60 differentiation agents” (Bioorg Med Chem Lett, 2016)
Calls of active or inactive are those of the source. The calls are words filed in the database; no cut-off is given here.

Assays:
HL-60 [1] = test: Induction of cell differentiation in human HL60 at 10 uM after 3 days by leishmans staining based microscopic analysis; type: functional
HL-60 [2] = test: Induction of cell differentiation in human HL60 cells assessed as increase in differentiation index at 10 uM measured after 3 days by NBT/MTT assay; type: functional, cell-based
HL-60 [3] = test: Induction of cell differentiation in human HL60 cells at 0.1 to 10 uM measured after 5 days by NBT/MTT assay; type: functional, cell-based
HL-60 [4] = test: Induction of cell differentiation in human HL60 cells at 0.1 to 10 uM measured after 3 days by NBT/MTT assay; type: functional, cell-based
[5] = Induction of cell differentiation in human HL60 cells by NBT/MTT assay; type: functional, cell-based; details: HL-60
HL-60 [6] = test: Induction of cell differentiation in human HL60 cells assessed as increase in differentiation index at 10 uM measured after 5 days by NBT/MTT assay; type: functional, cell-based
HL-60 [7] = test: Induction of cell differentiation in human HL60 cells assessed as irregularity of nuclear and cytoplasmic shape after 3 days at 10 uM by leishmans staining based microscopic analysis; type: functional
HL-60 [8] = test: Induction of cell differentiation in human HL60 assessed as reduction in cell number after 3 days at 10 uM by leishmans staining based microscopic analysis; type: functional
HL-60 [9] = test: Induction of cell differentiation in human HL60 cells assessed as condensation of nuclear chromatin after 3 days at 10 uM by leishmans staining based microscopic analysis; type: functional
PBMC = test: Cytotoxicity against human PBMC cells assessed as cell viability by MTT assay; type: cell-based
HL-60 [10] = test: Induction of cell differentiation in human HL60 cells at 10 uM co-administered with MDA measured after 3 days by NBT/MTT assay; type: functional, cell-based
HL-60 [11] = test: Induction of cell differentiation in human HL60 cells at 10 uM co-administered with DAF measured after 3 days by NBT/MTT assay; type: functional, cell-based

Structure (SMILES)	Activity (HL-60 [2])	IC50 [5]	Activity (PBMC)	further results
Nc1ccc(Cc2ccc(N)cc2)cc1	inactive			Activity (HL-60 [1]): inactive
CC1=C(/C=C/C(C)=C/C=C/C(C)=C/C(=O)O)C(C)(C)CCC1				Activity (HL-60 [3]): Active; Activity (HL-60 [4]): Active
NCCCCNC(=O)Nc1cc(N2CCCCC2)nc(N)[n+]1[O-]		> 10 µM		
Nc1ccc(Cc2ccc(NC(=O)Nc3cc(N4CCCCC4)nc(N)[n+]3[O-])cc2)cc1	Active	3.02 µM	Toxic	Activity (HL-60 [6]): Active; Activity (HL-60 [7]): Active; Activity (HL-60 [8]): Active; Activity (HL-60 [9]): Active
Nc1ccc2c(c1)Cc1cc(NC(=O)Nc3cc(N4CCCCC4)nc(N)[n+]3[O-])ccc1-2	Active	3.04 µM	Toxic	Activity (HL-60 [6]): Active; Activity (HL-60 [7]): Active; Activity (HL-60 [8]): Active; Activity (HL-60 [9]): Active
COc1ccc(C(NC(=O)Nc2cc(N3CCCCC3)nc(N)[n+]2[O-])c2ccc(OC)cc2)cc1		> 10 µM		
N#CCCNC(=O)Nc1cc(N2CCCCC2)nc(N)[n+]1[O-]		> 10 µM		
CCCCCCCCCCCCCC(=O)O[C@@H]1[C@@H](C)[C@@]2(O)[C@@H](C=C(CO)C[C@]3(O)C(=O)C(C)=C[C@@H]23)[C@@H]2C(C)(C)[C@]12OC(C)=O				Activity (HL-60 [1]): inactive
CCCCNC(=O)Nc1cc(N2CCCCC2)nc(N)[n+]1[O-]		> 10 µM		
NCCCNCCCCNCCCNC(=O)Nc1cc(N2CCCCC2)nc(N)[n+]1[O-].O=C(O)C(F)(F)F.O=C(O)C(F)(F)F.O=C(O)C(F)(F)F	Active	3.02 µM	Toxic	Activity (HL-60 [6]): Active
Nc1cc(N2CCCCC2)nc(N)[n+]1[O-] [MINOXIDIL]		> 10 µM		Activity (HL-60 [1]): inactive; Activity (HL-60 [10]): inactive; Activity (HL-60 [11]): inactive
Nc1nc(N2CCCCC2)cc(NC(=O)NC(c2ccccc2)c2ccccc2)[n+]1[O-]	Active	3.05 µM	Toxic	Activity (HL-60 [6]): Active
NCCCCCCNC(=O)Nc1cc(N2CCCCC2)nc(N)[n+]1[O-].O=C(O)C(F)(F)F		3.3 µM	Toxic	Activity (HL-60 [3]): inactive; Activity (HL-60 [7]): Active; Activity (HL-60 [8]): Active; Activity (HL-60 [9]): Active; Activity (HL-60 [4]): Active
Nc1ccc2c(c1)Cc1cc(N)ccc1-2	inactive			
Nc1nc(N2CCCCC2)cc(NC(=O)NCc2ccccc2)[n+]1[O-]		> 10 µM		
